Patent US12187721B2, “Protein tyrosine phosphatase inhibitors” (Array BioPharma Inc., priority 2018, dated 2025)
pIC50: −log10 of the molar value. Where a name gives a salt, the structure may show the parent alone. Read-outs that look alike come from different tables or passages of the source.

Biological target: T1, full-length SHP2 (His6-tagged SHP2(2-527)) (Homo sapiens, UniProt Q06124)
T1 construct: His6-tagged SHP2(2-527); His6; made in house; host or cells: E. coli
Experiment: SHP2 Enzymatic Assay (fluorescence intensity kinetic assay, DiFMUP hydrolysis)
Type: biochemical
Protocol: A fluorescence intensity kinetic assay was configured for full-length SHP2 that monitors the amount of 6,8-difluoro-7-hydroxy-4-methylcoumarin (“DiFMU”) formed upon hydrolysis of 6,8-difluoro-4-methylumbelliferyl phosphate (“DiFMUP”) by SHP2. Assay mixtures consisted of 25 mM K^+HEPES, pH 7.4, 0.01% Triton X-100, 1 mM DTT, 50 mM KCl, 100 μg/mL bovine γ-globulin, 50 μM DiFMUP, 1 μM SHP2 activating peptide (LN(pY)IDLDLV(dPEG8)LST(pY)ASINFQK-amide), 1 nM full-length SHP2 (His6-tagged SHP2(2-527), recombinantly expressed in E. coli and purified in-house) and 2% dimethylsulfoxide (“DMSO”) (from compound). […] The assay was run in 384-well, polystyrene, low-volume, non-treated, black microtiter plates (Costar 4511) in a final volume of 20 μL. Low control wells lacked enzyme. The assays were initiated by the addition of a mixture of SHP2 and the activating peptide, and following a 15 second mix on an orbital shaker, were read in kinetic mode for 15 minutes (30 seconds/cycle) at ambient temperature on a PerkinElmer EnVision microplate reader (λEx=355 nm, λEm=460 nm). Initial velocities (slopes of the tangents at t=0) were estimated from exponential fits to the slightly nonlinear progress curves and then were converted to percent of control (“POC”) using the following equation:
[formula] • Where: Xmax Average Uninhibited Controls • Xmin Average Background A 4-parameter logistic model was the fit to the POC data for each compound. From that fit, the IC50 was estimated and is defined as the concentration of compound at which the curve crosses 50 POC.
The reported IC50 in Table 1 may be from a single assay or the mean of multiple assays.

[1] = full-length SHP2 with 1 μM activating peptide, 50 μM DiFMUP, single assay or mean of multiple assays, read-out: Biological Example 1 IC50

T1 sequence (Q06124 2-527): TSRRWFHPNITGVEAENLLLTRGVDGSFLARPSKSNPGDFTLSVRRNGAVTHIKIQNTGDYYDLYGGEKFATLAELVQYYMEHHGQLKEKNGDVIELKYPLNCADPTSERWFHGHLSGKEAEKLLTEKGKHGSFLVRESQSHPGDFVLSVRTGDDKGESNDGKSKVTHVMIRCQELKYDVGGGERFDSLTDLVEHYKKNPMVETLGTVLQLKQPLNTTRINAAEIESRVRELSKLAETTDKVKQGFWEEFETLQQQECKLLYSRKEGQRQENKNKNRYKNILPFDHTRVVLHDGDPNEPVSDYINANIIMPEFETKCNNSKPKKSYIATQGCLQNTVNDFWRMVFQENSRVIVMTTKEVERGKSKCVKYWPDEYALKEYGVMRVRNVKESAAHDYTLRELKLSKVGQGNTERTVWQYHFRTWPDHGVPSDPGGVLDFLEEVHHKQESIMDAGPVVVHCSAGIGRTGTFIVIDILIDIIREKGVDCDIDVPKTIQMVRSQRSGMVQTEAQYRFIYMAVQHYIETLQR

Cc1cccc2c1CC1(CCN(c3cnc4nc(Sc5ccnc(N)c5Cl)ccc4n3)CC1)[C@H]2N [Example 168, (R)-1′-(6-((2-amino-3-chloropyridin-4-yl)thio)pyrido[2,3-b]pyrazin-2-yl)-4-methyl-1,3-dihydrospiro[indene-2,4′-piperidin]-1-amine]
pIC50: 7.27

CC1(N)CCN(c2cnc3cc(-c4cccc(Cl)c4Cl)ccc3n2)CC1 [Example 22, 1-(6-(2,3-dichlorophenyl)quinoxalin-2-yl)-4-methylpiperidin-4-amine]
pIC50 [1]: 6.15

Cc1c(Sc2ccc3nc(N4CCC5(CC4)CO[C@@H](C)[C@H]5N)cnc3n2)ccnc1N [Example 72, (3S,4S)-8-(6-((2-amino-3-methylpyridin-4-yl)thio)pyrido[2,3-b]pyrazin-2-yl)-3-methyl-2-oxa-8-azaspiro[4,5]decan-4-amine]
pIC50: 6.83

Nc1nccc(Sc2ccc3nc(N4CCC[C@H](N)CC4)cnc3n2)c1Cl [Example 51, (S)-1-(6-((2-amino-3-chloropyridin-4-yl)thio)pyrido[2,3-b]pyrazin-2-yl)azepan-4-amine]
pIC50: 7.19

NCC1CN(c2cnc3nc(-c4cccc(Cl)c4Cl)ccc3n2)CCO1 (stereo not shown) [Example 64, (4-(6-(2,3-dichlorophenyl)pyrido[2,3-b]pyrazin-2-yl)morpholin-2-yl)methanamine]
pIC50: 6.14

C[C@@H]1OCC2(CCN(c3cnc4nc(Sc5ccnc(N6CCC(O)C6)c5Cl)ccc4n3)CC2)[C@@H]1N (stereo partly drawn) [Example 89, 1-(4-((2-((3S,4S)-4-amino-3-methyl-2-oxa-8-azaspiro[4.5]decan-8-yl)pyrido[2,3-b]pyrazin-6-yl)thio)-3-chloropyridin-2-yl)pyrrolidin-3-ol]
pIC50: 7.10

C[C@@H]1OCC2(CCN(c3cnc4nc(Sc5ccncc5C(F)(F)F)ccc4n3)CC2)[C@@H]1N [Example 188, (3S,4S)-3-methyl-8-(6-((3-(trifluoromethyl)pyridin-4-yl)thio)pyrido[2,3-b]pyrazin-2-yl)-2-oxa-8-azaspiro[4.5]decan-4-amine]
pIC50: 6.82

Nc1nccc(Sc2ccc3nc(N4CC[C@@H](N)[C@H](O)C4)cnc3n2)c1Cl [Example 82, (3R,4R)-4-amino-1-(6-((2-amino-3-chloropyridin-4-yl)thio)pyrido[2,3-b]pyrazin-2-yl)piperidin-3-ol]
pIC50: 7.19

CNC1(C)CCN(c2cnc3nc(Sc4ccnc(N)c4Cl)ccc3n2)CC1 [Example 31, 3-chloro-4-((2-(4-methyl-4-(methylamino)piperidin-1-yl)pyrido[2,3-b]pyrazin-6-yl)thio)pyridin-2-amine]
pIC50 [1]: 7.00

Nc1nccc(Sc2ccc3nc(N4CCC5(CCN5)CC4)cnc3n2)c1Cl [Example 55, 4-((2-(1,7-diazaspiro[3.5]nonan-7-yl)pyrido[2,3-b]pyrazin-6-yl)thio)-3-chloropyridin-2-amine]
pIC50: 6.92

Cc1ccc(Sc2ccc3nc(N4CCC(C)(N)CC4)cnc3n2)c(Cl)n1 [Example 98, 1-(6-((2-chloro-6-methylpyridin-3-yl)thio)pyrido[2,3-b]pyrazin-2-yl)-4-methylpiperidin-4-amine]
pIC50: 6.77

C[C@@H]1OCC2(CCN(c3cnc4nc(Sc5cc(N)nc(Cl)c5Cl)ccc4n3)CC2)[C@@H]1N [Example 68, (3S,4S)-8-(6-((6-amino-2,3-dichloropyridin-4-yl)thio)pyrido[2,3-b]pyrazin-2-yl)-3-methyl-2-oxa-8-azaspiro[4,5]decan-4-amine]
pIC50: 7.16

CC(=O)N1CCN(c2nccc(Sc3ccc4nc(N5CCC6(CC5)CO[C@@H](C)[C@H]6N)cnc4n3)c2Cl)CC1 [Example 80, 1-(4-(4-((2-((3S,4S)-4-amino-3-methyl-2-oxa-8-azaspiro[4.5]decan-8-yl)pyrido[2,3-b]pyrazin-6-yl)thio)-3-chloropyridin-2-yl)piperazin-1-yl)ethan-1-one]
pIC50: 6.13

COc1cccc2c1CC1(CCN(c3cnc4nc(Sc5ccnc(N)c5Cl)ccc4n3)CC1)[C@@H]2N [Example 155]
pIC50: 7.35

N#Cc1ccc2c(c1)[C@@H](N)C1(CCN(c3cnc4nc(Sc5ccnc(N)c5Cl)ccc4n3)CC1)C2 (single isomer, unassigned) [Example 112]
pIC50: 7.48

CC(C)(O)CC1(N)CCN(c2cnc3nc(Sc4ccnc(N)c4Cl)ccc3n2)CC1 [Example 129, 1-(4-amino-1-(6-((2-amino-3-chloropyridin-4-yl)thio)pyrido[2,3-b]pyrazin-2-yl)piperidin-4-yl)-2-methylpropan-2-ol]
pIC50: 7.47

Nc1nccc(Sc2ccc3nc(N4CC5CNCC(C4)O5)cnc3n2)c1Cl [Example 206, 4-((2-(9-oxa-3,7-diazabicyclo[3.3.1]nonan-3-yl)pyrido[2,3-b]pyrazin-6-yl)thio)-3-chloropyridin-2-amine]
pIC50: 5.69

C[C@@H]1C[C@@H](N)CCN1c1cnc2nc(Sc3ccnc(N)c3Cl)ccc2n1 [Example 122, 4-((2-((2R,4S)-4-amino-2-methylpiperidin-1-yl)pyrido[2,3-b]pyrazin-6-yl)thio)-3-chloropyridin-2-amine dihydrochloride]
pIC50: 7.19

CC1(N)CCN(c2cnc3nc(Sc4cccn5nccc45)ccc3n2)CC1 [Example 36, 4-methyl-1-(6-(pyrazolo[1,5-a]pyridin-4-ylthio)pyrido[2,3-b]pyrazin-2-yl)piperidin-4-amine]
pIC50 [1]: 6.40

C[C@@]1(N)CCN(c2cnc3nc(Sc4ccnc(N)c4Cl)ccc3n2)C1 [Example 24, (R)-4-((2-(3-amino-3-methylpyrrolidin-1-yl)pyrido[2,3-b]pyrazin-6-yl)thio)-3-chloropyridin-2-amine]
pIC50: 6.70

Cc1cccc2c1CC1(CCN(c3cnc4nc(Sc5ccnc(N)c5Cl)ccc4n3)CC1)[C@@H]2N [Example 126, (S)-1′-(6-((2-amino-3-chloropyridin-4-yl)thio)pyrido[2,3-b]pyrazin-2-yl)-4-methyl-1,3-dihydrospiro[indene-2,4′-piperidin]-1-amine]
pIC50: 7.52

C[C@@H]1OCC2(CCN(c3cnc4nc(Sc5ccncc5F)ccc4n3)CC2)[C@@H]1N [Example 186, (3S,4S)-8-(6-((3-fluoropyridin-4-yl)thio)pyrido[2,3-b]pyrazin-2-yl)-3-methyl-2-oxa-8-azaspiro[4.5]decan-4-amine]
pIC50: 5.64

CC1(N)CCN(c2cnc3nc(Sc4cccc(C#N)c4Cl)ccc3n2)CC1 [Example 35, 3-((2-(4-amino-4-methylpiperidin-1-yl)pyrido[2,3-b]pyrazin-6-yl)thio)-2-chlorobenzonitrile]
pIC50 [1]: 6.57

C[C@@H]1OCC2(CCN(c3cnc4nc(Sc5ccnc(N6CC[C@@H](CO)C6)c5Cl)ccc4n3)CC2)[C@@H]1N [Example 106, ((R)-1-(4-((2-((3S,4S)-4-amino-3-methyl-2-oxa-8-azaspiro[4.5]decan-8-yl)pyrido[2,3-b]pyrazin-6-yl)thio)-3-chloropyridin-2-yl)pyrrolidin-3-yl)methanol]
pIC50: 7.00

C[C@@]1(N)CCCN(c2cnc3nc(Sc4ccnc(N)c4Cl)ccc3n2)CC1 (single isomer, unassigned) [Example 74]
pIC50: 7.38

CC1(N)CCN(c2cnc3nc(Cc4cccc(Cl)c4Cl)ccc3n2)CC1 [Example 10, 1-(6-(2,3-dichlorobenzyl)pyrido[2,3-b]pyrazin-2-yl)-4-methylpiperidin-4-amine]
pIC50: 5.70

C[C@@H]1OCC2(CCN(c3cnc4nc(Sc5ccnc(Cl)c5Cl)ccc4n3)CC2)[C@@H]1N [Example 177, (3S,4S)-8-(6-((2,3-dichloropyridin-4-yl)thio)pyrido[2,3-b]pyrazin-2-yl)-3-methyl-2-oxa-8-azaspiro[4.5]decan-4-amine]
pIC50: 6.66

NCC1CN(c2cnc3nc(-c4ccccc4)ccc3n2)CCO1 (stereo not shown) [Example 65, (4-(6-phenylpyrido[2,3-b]pyrazin-2-yl)morpholin-2-yl)methanamine]
pIC50: 5.24

C[C@@H]1OCC2(CCN(c3cnc4nc(Sc5ccnc(N6CCS(=O)(=O)CC6)c5Cl)ccc4n3)CC2)[C@@H]1N [Example 77, 4-(4-((2-((3S,4S)-4-amino-3-methyl-2-oxa-8-azaspiro[4.5]decan-8-yl)pyrido[2,3-b]pyrazin-6-yl)thio)-3-chloropyridin-2-yl)thiomorpholine 1,1-dioxide]
pIC50: 6.46

C[C@@H]1OCC2(CCN(c3cnc4nc(Sc5c(F)cnc6[nH]ccc56)ccc4n3)CC2)[C@@H]1N [Example 141, (3S,4S)-8-(6-((5-fluoro-1H-pyrrolo[2,3-b]pyridin-4-yl)thio)pyrido[2,3-b]pyrazin-2-yl)-3-methyl-2-oxa-8-azaspiro[4.5]decan-4-amine]
pIC50: 7.13

CNC1C[C@@H]2CC[C@@H](C1)N2c1cnc2nc(Sc3ccnc(N)c3Cl)ccc2n1 (stereo partly drawn) [Example 93, (1S,3s,5S)-8-(6-((2-amino-3-chloropyridin-4-yl)thio)pyrido[2,3-b]pyrazin-2-yl)-N-methyl-8-azabicyclo[3.2.1]octan-3-amine]
pIC50: 7.31
